Measured values reported in patent publication US7259004B1, “Endophytic streptomycetes from higher plants with biological activity” (Montana State University, priority 2002, dated 2007).

Legend:
[1] = system: Saccharomyces cerevisiae ATCC 9763; experiment: disk diffusion assay; type: cell-based; details: 10 micrograms per disk; 35° C. Further: key: R = resistant.
[2] = system: Streptococcus pneumoniae 700674; experiment: microbroth dilution MIC
[3] = system: Candida parasdosis ATCC 90018; experiment: disk diffusion assay; type: cell-based, Candida parapsilosis; details: 10 micrograms per disk; 35° C. Further: key: R = resistant.
Bacillus anthracis K8902 = type: cell-based; details: 10 micrograms per disk; ciprofloxacin 5, vancomycin 30 micrograms per disk; 35° C.
S. epidermis 12228 = experiment: microbroth dilution MIC; type: cell-based, Staphylococcus epidermidis
[4] = system: Staphylococccus simulans 11631; experiment: microbroth dilution MIC; type: cell-based, Staphylococcus simulans
[5] = system: Streptococcus pneumoniae 700676; experiment: microbroth dilution MIC
E. faecalis 29212 = experiment: microbroth dilution MIC; type: cell-based, Enterococcus faecalis
[6] = system: Enterococcus faecalis ATCC 51299; experiment: disk diffusion assay; type: cell-based; details: 10 micrograms per disk; ciprofloxacin 5, vancomycin 30 micrograms per disk; 35° C.
S. aureus ATCC 6583P = experiment: MIC with and without double stranded DNA; type: cell-based, Staphylococcus aureus
Bacillus cereus 4342 = experiment: microbroth dilution MIC; type: cell-based
Cryptococcus neoformans = experiment: microbroth dilution MIC
[7] = system: Candida albicans ATCC 90028; experiment: disk diffusion assay; type: cell-based; details: 10 micrograms per disk; 35° C. Further: key: R = resistant.
[8] = system: Candida albicans ATCC 24433; experiment: disk diffusion assay; type: cell-based; details: 10 micrograms per disk; 35° C. Further: key: R = resistant.
[9] = system: Candida glabrata ATCC 2001; experiment: disk diffusion assay; type: cell-based; details: 10 micrograms per disk; 35° C. Further: key: R = resistant.
Candida krusei ATCC 6258 = experiment: disk diffusion assay; type: cell-based; details: 10 micrograms per disk; 35° C.
B. subtilis 1A757 = experiment: microbe, parasite or virus in culture; type: cell-based, Bacillus subtilis; details: for increase of MICs when DNA was added: Bacillus subtilis and Staphylococcus aureus, 20 micrograms per well sheared salmon sperm DNA
[10] = system: Candida tropicalis ATCC 750; experiment: disk diffusion assay; type: cell-based; details: 10 micrograms per disk; 35° C. Further: key: R = resistant.
[11] = system: Staphylococcus aureus ATCC 33591 (MRSA); experiment: microbroth dilution MIC; type: cell-based; details: for MIC MRSA 33591: second listing in Table 4
[12] = system: Enterococcus faecalis ATCC 51299 (VRE); experiment: microbroth dilution MIC; type: cell-based; details: for MIC Enterococcus faecalis ATCC 51299: resistant to vancomycin, first listing in Table 4; for MIC E. faecalis VRE 51299: third listing in Table 4
[13] = system: M. tuberculosis H37Rv (ATCC 25618) (drug sensitive); experiment: IC50 in Mycobacteria 7H11 agar; type: cell-based, Mycobacterium tuberculosis; details: 7H11 agar with 10% OADC
[14] = system: Candida parasilosis ATCC 22019; experiment: disk diffusion assay; type: cell-based, Candida parapsilosis; details: 10 micrograms per disk; 35° C. Further: key: R = resistant.
[15] = system: Streptococcus pneumoniae ATCC 49619; experiment: disk diffusion assay; type: cell-based; details: 10 micrograms per disk; ciprofloxacin 5, vancomycin 30 micrograms per disk; MHA with 5% dsb. and 5% CO2
brine shrimp = brine shrimp assays; details: preliminary assays
GISA 700699 = experiment: microbroth dilution MIC
[16] = system: Shigella dysenteriae ATCC 11835; experiment: disk diffusion assay; type: cell-based; details: 10 micrograms per disk; 35° C.
[17] = system: Neisseria gonnorhea ATCC 49226; experiment: disk diffusion assay; type: cell-based; details: 10 micrograms per disk; ciprofloxacin 5, vancomycin 30 micrograms per disk; GC agar with 1% growth supplement with 5% CO2
[18] = system: Plasmodium falciparum strain CSC-1 (Honduras); experiment: antimalarial assay, 3H-phenylalanine radiobioassay in human red blood cells; details: human red blood cells, 3H-phenylalanine; standard deviation of the mean, three experiments
[19] = system: Acinetobacter sp. ATCC 49137; experiment: disk diffusion assay; type: cell-based; details: 10 micrograms per disk; ciprofloxacin 5, vancomycin 30 micrograms per disk; grown at 30° C.
S. epidermis ATCC 12228 = experiment: disk diffusion assay; type: cell-based, Staphylococcus epidermidis; details: 10 micrograms per disk; 35° C.
[20] = system: Listeria monocytogenes 19115; experiment: microbroth dilution MIC; type: cell-based
E. faecium 49624 = experiment: microbroth dilution MIC; type: cell-based, Enterococcus faecium
[21] = system: Enterococcus faecium ATCC 51559; experiment: disk diffusion assay; type: cell-based; details: 10 micrograms per disk; ciprofloxacin 5, vancomycin 30 micrograms per disk; 35° C.
Rhizoctonia solani = experiment: microbroth dilution MIC, plant associated microorganisms; type: cell-based; details: PD broth, 48 hours at 23° C.
Experimental: (§1) Incubation was for 48 hours at 23° C. A plant pathogenic strain of Pseudomonas syringae was also tested using the same PD broth medium and with concentrations of colony forming units as given above. The organisms were obtained from the Montana State University plant pathogen culture collection administered by Dr. […] The relative activities against plant pathogenic fungi ranged from a few tenths of a microgram up to thirty micrograms. Table 2 provides the results of tests of inhibitory activity of the munumbicins against various plant-pathogenic fungi and one pathogenic bacterium. The data are reported as MIC values in micrograms/ml.

Phytophthora cinnamomi = experiment: as above; type: cell-based; details: PD broth, 48 hours at 23° C.
Experimental: as §1

Pythium ultimum = experiment: as above; type: cell-based; details: PD broth, 48 hours at 23° C.
Experimental: as §1

Sclerotinia sclerotiorum = experiment: as above; type: cell-based; details: PD broth, 48 hours at 23° C.
Experimental: as §1

Pseudomonas syringae = experiment: as above; type: cell-based; details: PD broth
Experimental: as §1

Geotrichum candidum = experiment: as above; type: cell-based; details: PD broth, 48 hours at 23° C.
Experimental: as §1

[22] = DNA +, 20 micrograms per well of sheared salmon sperm DNA

In the case of munumbicin B, the “diameter of the zone of inhibition, Saccharomyces cerevisiae ATCC 9763” value [1] is reported as “R”, the “MIC Streptococcus pneumoniae 700674” value [2] is reported as 0.5 micrograms/ml and the “diameter of the zone of inhibition, Candida parasdosis ATCC 90018” value [3] is reported as “R”. The “diameter of the zone of inhibition, Bacillus anthracis K8902” value (Bacillus anthracis K8902) was 18 mm, the “MIC S. epidermis 12228” value (S. epidermis 12228) was 1 micrograms/ml and the “MIC Staphylococccus simulans 11631” value [4] was 1 micrograms/ml. The “MIC Streptococcus pneumoniae 700676” value [5] was 0.5 micrograms/ml, the “MIC E. faecalis 29212” value (E. faecalis 29212) was 0.25 micrograms/ml and the “diameter of the zone of inhibition, Enterococcus faecalis ATCC 51299” value [6] was 23 mm. For the same substance, the “MIC S. aureus ATCC 6583P” value (S. aureus ATCC 6583P; [22]) was over 32 micrograms/ml, the “MIC S. aureus ATCC 6583P” value (S. aureus ATCC 6583P; DNA −) was 2 micrograms/ml and the “MIC Bacillus cereus 4342” value (Bacillus cereus 4342) was 0.5 micrograms/ml. For the same substance, the “MIC Cryptococcus neoformans” value (Cryptococcus neoformans) was 10 micrograms/ml, the “diameter of the zone of inhibition, Candida albicans ATCC 90028” value [7] was “R” and the “diameter of the zone of inhibition, Candida albicans ATCC 24433” value [8] was “R”. The “diameter of the zone of inhibition, Candida glabrata ATCC 2001” value [9] was “R”, the “diameter of the zone of inhibition, Candida krusei ATCC 6258” value (Candida krusei ATCC 6258) was “R” and the “increase of MICs when DNA was added” value (B. subtilis 1A757) was “affected”. For the same substance, the “MIC B. subtilis 1A757” value (B. subtilis 1A757; [22]) was over 32 micrograms/ml, the “1×MIC against Bacillus subtilis” value (B. subtilis 1A757; concentration used in macromolecular synthesis assay) was 2 micrograms/ml and the “diameter of the zone of inhibition, Candida tropicalis ATCC 750” value [10] was “R”. The “MIC Staphylococcus aureus ATCC 33591” value ([11]; methicillin resistant strain, first listing in Table 4) was 2.5 micrograms/ml, the “MIC MRSA 33591” value [11] was 0.5 micrograms/ml and the “MIC Enterococcus faecalis ATCC 51299” value [12] was 12.5 micrograms/ml. For the same substance, the “MIC E. faecalis 51299” value ([12]; second listing in Table 4) was 8 micrograms/ml, the “MIC E. faecalis VRE 51299” value [12] was 0.5 micrograms/ml and the “IC50 M. tuberculosis H37Rv (ATCC 25618) (drug sensitive)” value [13] was 46 micrograms/ml. The “diameter of the zone of inhibition, Candida parasilosis ATCC 22019” value [14] was “R”, the “diameter of the zone of inhibition, Streptococcus pneumoniae ATCC 49619” value [15] was 17 mm and the LC50 brine shrimp (brine shrimp) was 8.2 micrograms/ml. For the same substance, the “MIC GISA 700699” value (GISA 700699) was 2 micrograms/ml, the “diameter of the zone of inhibition, Shigella dysenteriae ATCC 11835” value [16] was “R” and the “diameter of the zone of inhibition, Neisseria gonnorhea ATCC 49226” value [17] was 14 mm. For the same substance, the “IC50 Plasmodium falciparum” value [18] was 0.13 ± 0.07 µg/mL, the “diameter of the zone of inhibition, Acinetobacter sp. ATCC 49137” value [19] was “R” and the “diameter of the zone of inhibition, S. epidermis ATCC 12228” value (S. epidermis ATCC 12228) was 21 mm. The “MIC Listeria monocytogenes 19115” value [20] was 4 micrograms/ml, the “MIC E. faecium 49624” value (E. faecium 49624) was 0.5 micrograms/ml and the “diameter of the zone of inhibition, Enterococcus faecium ATCC 51559” value [21] was 26 mm. The “MIC Rhizoctonia solani” value (Rhizoctonia solani) was 8.0 micrograms/ml, the “MIC Phytophthora cinnamomi” value (Phytophthora cinnamomi) was 6.2 micrograms/ml and the “MIC Pythium ultimum” value (Pythium ultimum) was 0.2 micrograms/ml. The “MIC Sclerotinia sclerotiorum” value (Sclerotinia sclerotiorum) was 0.20 micrograms/ml, the “MIC Pseudomonas syringae” value (Pseudomonas syringae) was 2.0 micrograms/ml and the “MIC Geotrichum candidum” value (Geotrichum candidum) was 31.2 micrograms/ml.
With munumbicin C the “diameter of the zone of inhibition, Saccharomyces cerevisiae ATCC 9763” value [1] was “R”, the “MIC Streptococcus pneumoniae 700674” value [2] was 0.125 micrograms/ml and the “diameter of the zone of inhibition, Candida parasdosis ATCC 90018” value [3] was “R”. For the same substance, the “diameter of the zone of inhibition, Bacillus anthracis K8902” value (Bacillus anthracis K8902) was “R”, the “MIC S. epidermis 12228” value (S. epidermis 12228) was 2 micrograms/ml and the “MIC Staphylococccus simulans 11631” value [4] was 1 micrograms/ml. The “MIC Streptococcus pneumoniae 700676” value [5] was 0.125 micrograms/ml, the “MIC E. faecalis 29212” value (E. faecalis 29212) was 0.5 micrograms/ml and the “diameter of the zone of inhibition, Enterococcus faecalis ATCC 51299” value [6] was 22 mm. For the same substance, the “MIC S. aureus ATCC 6583P” value (S. aureus ATCC 6583P; [22]) was over 32 micrograms/ml, the “MIC S. aureus ATCC 6583P” value (S. aureus ATCC 6583P; DNA −) was 0.5 micrograms/ml and the “MIC Bacillus cereus 4342” value (Bacillus cereus 4342) was 0.25 micrograms/ml. For the same substance, the “MIC Cryptococcus neoformans” value (Cryptococcus neoformans) was 10 micrograms/ml, the “diameter of the zone of inhibition, Candida albicans ATCC 90028” value [7] was “R” and the “diameter of the zone of inhibition, Candida albicans ATCC 24433” value [8] was “R”. The “diameter of the zone of inhibition, Candida glabrata ATCC 2001” value [9] was “R”, the “diameter of the zone of inhibition, Candida krusei ATCC 6258” value (Candida krusei ATCC 6258) was 8 mm and the “increase of MICs when DNA was added” value (B. subtilis 1A757) was “affected”. The “MIC B. subtilis 1A757” value (B. subtilis 1A757; [22]) was over 32 micrograms/ml, the “MIC B. subtilis 1A757” value (B. subtilis 1A757; DNA −) was 0.5 micrograms/ml and the “diameter of the zone of inhibition, Candida tropicalis ATCC 750” value [10] was “R”. The “MIC MRSA 33591” value [11] was 0.5 micrograms/ml, the “MIC Enterococcus faecalis ATCC 51299” value [12] was 16 micrograms/ml and the “MIC E. faecalis VRE 51299” value [12] was 0.5 micrograms/ml. For the same substance, the “IC50 M. tuberculosis H37Rv (ATCC 25618) (drug sensitive)” value [13] was over 150 micrograms/ml, the “diameter of the zone of inhibition, Candida parasilosis ATCC 22019” value [14] was “R” and the “diameter of the zone of inhibition, Streptococcus pneumoniae ATCC 49619” value [15] was 7 mm. For the same substance, the LC50 brine shrimp (brine shrimp) was 2.0 micrograms/ml, the “MIC GISA 700699” value (GISA 700699) was 2 micrograms/ml and the “diameter of the zone of inhibition, Shigella dysenteriae ATCC 11835” value [16] was “R”. For the same substance, the “diameter of the zone of inhibition, Neisseria gonnorhea ATCC 49226” value [17] was 8 mm, the “IC50 Plasmodium falciparum” value [18] was 0.0065 µg/mL and the “diameter of the zone of inhibition, Acinetobacter sp. ATCC 49137” value [19] was “R”. The “diameter of the zone of inhibition, S. epidermis ATCC 12228” value (S. epidermis ATCC 12228) was “R”, the “MIC Listeria monocytogenes 19115” value [20] was 2 micrograms/ml and the “MIC E. faecium 49624” value (E. faecium 49624) was 0.5 micrograms/ml. For the same substance, the “diameter of the zone of inhibition, Enterococcus faecium ATCC 51559” value [21] was 28 mm, the “MIC Rhizoctonia solani” value (Rhizoctonia solani) was 1.5 micrograms/ml and the “MIC Phytophthora cinnamomi” value (Phytophthora cinnamomi) was 1.5 micrograms/ml. For the same substance, the “MIC Pythium ultimum” value (Pythium ultimum) was 4.0 micrograms/ml, the “MIC Sclerotinia sclerotiorum” value (Sclerotinia sclerotiorum) was 8.0 micrograms/ml and the “MIC Pseudomonas syringae” value (Pseudomonas syringae) was 15.6 micrograms/ml. For the same substance, the “MIC Geotrichum candidum” value (Geotrichum candidum) was 15.6 micrograms/ml.
